Tests used:
NF-κB signaling pathway = assay: Cell-based dual luciferase NF-κB reporter assay (HEK293 cells, TNF stimulated); conditions: Homo sapiens, HEK293
Protocol: Dual-luciferase reporter assay was designed to find inhibitors of HOIP affecting NF-κB signaling pathway. The assay was performed in HEK293 cells which were transfected with plasmids coding for Firefly and NanoLuc luciferases. The NanoLuc luciferase plasmid contains NF-κB response element which determines its expression.
The assay was run following standard dual-luciferase protocols. The assay consists of a few steps: • compounds were dispensed at a concentration range: 100-0.005 μM with a final DMSO concentration of 1% of final volume (25 μL); • cells were stimulated after 30 min with 2.5 ng/mL TNF; and • after 6 h Firefly and NanoLuc luciferase activities are determined according to the procedure described by the manufacturer of Nano-Glo Dual-Luciferase Reporter Assay System.

[1] = biological target: T1, human E3 ubiquitin-protein ligase RNF31 (HOIP) (Homo sapiens, UniProt Q96EP0); assay: Cell-free HTRF-based HOIP inhibition assay; assay type: biochemical
T1 sequence (Q96EP0 695-1072 limits assumed): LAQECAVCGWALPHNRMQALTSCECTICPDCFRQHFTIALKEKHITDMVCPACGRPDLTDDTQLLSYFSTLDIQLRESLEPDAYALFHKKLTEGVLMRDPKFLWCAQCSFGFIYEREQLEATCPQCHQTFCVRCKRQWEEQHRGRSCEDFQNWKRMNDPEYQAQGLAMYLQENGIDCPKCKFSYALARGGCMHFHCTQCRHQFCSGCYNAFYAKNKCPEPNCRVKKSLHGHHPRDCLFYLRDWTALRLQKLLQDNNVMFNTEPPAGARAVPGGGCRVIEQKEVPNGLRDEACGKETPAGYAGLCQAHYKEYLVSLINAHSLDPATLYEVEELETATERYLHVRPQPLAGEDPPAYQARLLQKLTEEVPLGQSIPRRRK
Procedure, shortened: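 Recombinant human HOIP fragment (E. coli) preincubated with compounds (100-0.005 μM, 1% DMSO) and E1 for 1 h at 25° C. E2 and substrates then added; reaction 2.5 h at 25° C. HTRF read-out, excitation 337 nm, emissions 665/620 nm.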

[2] = system: bladder carcinoma RT4 cell line; assay: TNF-α-induced cytotoxicity assay (CellTiter-Glo viability); assay type: cell-based; conditions: Homo sapiens, RT-4, 72 h
Procedure, shortened: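 RT4 bladder carcinoma cells, 1000 per well, stimulated with 1.25 ng/mL TNFα together with compound for 72 h at 37° C., 5% CO2. Viability read by CellTiter-Glo luminescence, proportional to cellular ATP, as a measure of HOIP-dependent cytotoxicity.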

SMILES | IC50 (NF-κB signaling pathway) [nM] | IC50 [1] [nM] | IC50 [2] [nM]
Cc1nnc(COC(=O)N2CCc3[nH]c(=O)c(C(=O)NC/C=C/S(=O)(=O)c4ccccc4)cc3C2)o1 [Example 71, (5-methyl-1,3,4-oxadiazol-2-yl)methyl 3-{[(2E)-3-(benzenesulfonyl)prop-2-en-1-yl]carbamoyl}-2-oxo-1,2,5,6,7,8-hexahydro-1,6-naphthyridine-6-carboxylate] | ≤ 100000 | ≤ 1000 | ≤ 100000
O=C(NC/C=C/S(=O)(=O)c1ccccc1)c1cc2c([nH]c1=O)CCN(Cc1cccnc1)C2 [Example 104, N-[(2E)-3-(benzenesulfonyl)prop-2-en-1-yl]-2-oxo-6-[(pyridin-3-yl)methyl]-1,2,5,6,7,8-hexahydro-1,6-naphthyridine-3-carboxamide] | ≤ 10000 | ≤ 1000 | ≤ 10000
O=C(NC/C=C/S(=O)(=O)c1ccccc1)c1cc2c([nH]c1=O)CCN(C(=O)C1CC1)C2 [Example 109, N-[(2E)-3-(benzenesulfonyl)prop-2-en-1-yl]-6-cyclopropanecarbonyl-2-oxo-1,2,5,6,7,8-hexahydro-1,6-naphthyridine-3-carboxamide] | ≤ 100000 | ≤ 1000 | ≤ 100000
O=C(NC/C=C/S(=O)(=O)c1ccccc1)c1cc2c([nH]c1=O)CCC2 [Example 43, N-[(2E)-3-(benzenesulfonyl)prop-2-en-1-yl]-2-oxo-1H,2H,5H,6H,7H-cyclopenta[b]pyridine-3-carboxamide] | ≤ 10000 | ≤ 100 | ≤ 10000
COc1ccc(S(=N)(=O)/C=C/CNC(=O)c2cc3c([nH]c2=O)CCCC3)cc1F (stereo not drawn) [Example 30, N-[(2E)-3-[(3-fluoro-4-methoxyphenyl)(imino)oxo-λ^6-sulfanyl]prop-2-en-1-yl]-2-oxo-1,2,5,6,7,8-hexahydroquinoline-3-carboxamide] | ≤ 1000 | ≤ 100 | ≤ 1000
O=C(NC/C=C/S(=O)(=O)c1ccc(Cl)cc1)c1cc2ccccc2[nH]c1=O [Example 28, N-[(2E)-3-(4-chlorobenzenesulfonyl)prop-2-en-1-yl]-2-oxo-1,2-dihydroquinoline-3-carboxamide] | ≤ 1000 | ≤ 100 | ≤ 1000
O=C(NC/C=C/S(=O)(=O)c1ccc(Cl)cn1)c1cc2c([nH]c1=O)CCCC2 [Example 11, N-[(2E)-3-[(5-chloropyridin-2-yl)sulfonyl]prop-2-en-1-yl]-2-oxo-1,2,5,6,7,8-hexahydroquinoline-3-carboxamide] | ≤ 1000 | ≤ 100 | ≤ 1000
Cc1ccc(S(=O)(=O)/C=C/CNC(=O)c2cc3c([nH]c2=O)CCCC3)cc1C [Example 51, N-[(2E)-3-(3,4-dimethylbenzenesulfonyl)prop-2-en-1-yl]-2-oxo-1,2,5,6,7,8-hexahydroquinoline-3-carboxamide] | ≤ 1000 | ≤ 1000 | ≤ 1000
COc1ccc(S(=N)(=O)/C=C/CNC(=O)c2cc3c([nH]c2=O)CCN(C(=O)OCC(F)F)C3)cc1F (stereo not drawn) [Example 178, 2,2-difluoroethyl 3-{[(2E)-3-[(3-fluoro-4-methoxyphenyl)(imino)oxo-λ^6-sulfanyl]prop-2-en-1-yl]carbamoyl}-2-oxo-1,2,5,6,7,8-hexahydro-1,6-naphthyridine-6-carboxylate] | ≤ 10000 | ≤ 100 | ≤ 10000
O=C(NC/C=C/S(=O)(=O)c1ccc(Cl)cc1)c1cc2c([nH]c1=O)CCN(C(=O)OCC1CC1(F)F)C2 (stereo not drawn) [Example 86, (2,2-difluorocyclopropyl)methyl 3-{[(2E)-3-(4-chlorobenzenesulfonyl)prop-2-en-1-yl]carbamoyl}-2-oxo-1,2,5,6,7,8-hexahydro-1,6-naphthyridine-6-carboxylate] | ≤ 1000 | ≤ 100 | ≤ 10000
COc1ccc(S(=N)(=O)/C=C/CNC(=O)c2cc3c([nH]c2=O)CCC(C(C)(C)C)C3)cc1F (stereo not drawn) [Example 148, 6-tert-butyl-N-[(2E)-3-[(3-fluoro-4-methoxyphenyl)(imino)oxo-A*-sulfanyl]prop-2-en-1-yl]-2-oxo-1,2,5,6,7,8-hexahydroquinoline-3-carboxamide] | ≤ 1000 | ≤ 1000 | ≤ 1000
N=S(=O)(/C=C/CNC(=O)c1cc2c([nH]c1=O)CCCC2)c1cccc(Oc2ccccc2)c1 (stereo not drawn) [Example 146, N-[(2E)-3-[imino(oxo)(3-phenoxyphenyl)-λ^6-sulfanyl]prop-2-en-1-yl]-2-oxo-1,2,5,6,7,8-hexahydroquinoline-3-carboxamide] | ≤ 1000 | ≤ 100 | ≤ 1000
CN(C)c1ccc(S(=O)(=O)/C=C/CNC(=O)c2cc3c([nH]c2=O)CCCC3)cc1 [Example 54, N-[(2E)-3-[4-(dimethylamino)benzenesulfonyl]prop-2-en-1-yl]-2-oxo-1,2,5,6,7,8-hexahydroquinoline-3-carboxamide] | ≤ 1000 | ≤ 1000 | ≤ 1000
O=C(NC/C=C/S(=O)(=O)c1ccc(Cl)cc1)c1cc2c([nH]c1=O)CCN(C(=O)OC1COC1)C2 [Example 87, oxetan-3-vi 3-{[(2E)-3-(4-chlorobenzenesulfonyl)prop-2-en-1-yl]carbamoyl}-2-oxo-1,2,5,6,7,8-hexahydro-1,6-naphthyridine-6-carboxylate] | ≤ 10000 | ≤ 100 | ≤ 100000

More lines, main results first:

IC50 (NF-κB signaling pathway) [nM] | IC50 [1] [nM] | SMILES | IC50 [2] [nM]
≤ 1000 | ≤ 100 | O=C(NC/C=C/S(=O)(=O)c1ccc(F)cc1Cl)c1cc2c([nH]c1=O)CCCC2 [Example 33, N-[(2E)-3-(2-chloro-4-fluorobenzenesulfonyl)prop-2-en-1-yl]-2-oxo-1,2,5,6,7,8-hexahydroquinoline-3-carboxamide] | ≤ 1000
≤ 1000 | ≤ 100 | O=C(NC/C=C/S(=O)(=O)c1ccc(Cl)cc1Cl)c1cc(-c2ccccc2)c[nH]c1=O [Example 126, N-[(2E)-3-(2,4-dichlorobenzenesulfonyl)prop-2-en-1-yl]-2-oxo-5-phenyl-1,2-dihydropyridine-3-carboxamide] | ≤ 10000
≤ 1000 | ≤ 1000 | O=C(NC/C=C/S(=O)(=O)c1cccs1)c1cc2c([nH]c1=O)CCCC2 [Example 44, 2-oxo-N-[(2E)-3-(thiophene-2-sulfonyl)prop-2-en-1-yl]-1,2,5,6,7,8-hexahydroquinoline-3-carboxamide] | ≤ 1000
≤ 1000 | ≤ 100 | O=C(NC/C=C/S(=O)(=O)c1cccc(F)c1)c1cc2c([nH]c1=O)CCCC2 [Example 39, N-[(2E)-3-(3-fluorobenzenesulfonyl)prop-2-en-1-yl]-2-oxo-1,2,5,6,7,8-hexahydroquinoline-3-carboxamide] | ≤ 1000
≤ 1000 | ≤ 1000 | CC1(C)CCc2[nH]c(=O)c(C(=O)NC/C=C/S(=O)(=O)c3ccccc3)cc2C1 [Example 48, N-[(2E)-3-(benzenesulfonyl)prop-2-en-1-yl]-6,6-dimethyl-2-oxo-1,2,5,6,7,8-hexahydroquinoline-3-carboxamide] | ≤ 1000
≤ 1000 | ≤ 1000 | COc1cccc(S(=N)(=O)/C=C/CNC(=O)c2cc3c([nH]c2=O)CCCC3)c1 (stereo not drawn) [Example 64, N-[(2E)-3-[imino(3-methoxyphenyl)oxo-λ^6-sulfanyl]prop-2-en-1-yl]-2-oxo-1,2,5,6,7,8-hexahydroquinoline-3-carboxamide] | ≤ 1000
≤ 1000 | ≤ 1000 | O=C(NC/C=C/S(=O)(=O)c1ccc(F)cc1F)c1cc(-c2ccccc2)c[nH]c1=O [Example 127, N-[(2E)-3-(2,4-difluorobenzenesulfonyl)prop-2-en-1-yl]-2-oxo-5-phenyl-1,2-dihydropyridine-3-carboxamide] | ≤ 10000
≤ 1000 | ≤ 100 | CC(C)(C)OC(=O)N1CCc2[nH]c(=O)c(C(=O)NC/C=C/S(=O)(=O)c3ccccc3)cc2C1 [Example 10, tert-butyl 3-{[(2E)-3-(benzenesulfonyl)prop-2-en-1-yl]carbamoyl}-2-oxo-1,2,5,6,7,8-hexahydro-1,6-naphthyridine-6-carboxylate] | ≤ 10000
≤ 1000 | ≤ 100 | COc1ccc(S(=N)(=O)/C=C/CNC(=O)c2cc3c([nH]c2=O)CCCC3)cc1Cl (stereo not drawn) [Example 133, N-[(2E)-3-[(3-chloro-4-methoxyphenyl)(imino)oxo-λ^6-sulfanyl]prop-2-en-1-yl]-2-oxo-1,2,5,6,7,8-hexahydroquinoline-3-carboxamide] | ≤ 1000

Reference: patent publication US20260250250A1, “3-(SULPHONYL OR SULFONIMIDOYL)PROP-2-EN-1-YL]-2-OXO-1,2-DIHYDROPYRIDINE-3-CARBOXAMIDE DERIVATIVES” (Flinder Therapeutics B.V., priority 2022, published 2026)
